Assay results from patent US20170015555A1, “LONG-TERM PRESERVATION AND NOVEL APPLICATION OF CHLOROUS ACID AQUEOUS SOLUTION FORMULATION” (priority 2013, published 2017).

Experiments:
[1] = system: Bacillus cereus NBRC15305; assay: Sterilizing effect on floor surface after wiping off imitation vomit, tatami mattress; format: cell-based; conditions: 1000 ppm available chlorine
From the text: (§1) 1) Chlorous acid aqueous solution formulation (see Example 1: Table 11) Treatment sheet (material: 100% cotton): (about 27×40 cm) *Impregnated at a ratio of weight of treatment sheet (g): amount of liquid (ml)=1:3 2) Imitation vomit Miso solution: adjusted to pH of 2 with hydrochloric acid 3) Test Microbes that were Used E. coli: Escherichia coli IF03927 Staphylococcus aureus: Staphylococcus aureus IF0 12732 Thermoduric Microbes (Bacillus cereus): Bacillus cereus NBRC15305 Microbes of the genus Salmonella: Salmonella Enteritidis IF03313 Enterohemorrhagic Escherichia coli O157: Escherichia coli O157 Enterohemorrhagic Escherichia coli O111: Escherichia coli O111 Enterohemorrhagic Escherichia coli O26: Escherichia coli O26
(§2) (1) Imitation vomit was spread in an area about the size of an A4 sheet. (2) 5 dry sheets were laid thereon. (3) An agent solution was poured on the dry sheets to wipe off the imitation vomit. (4) A cotton swab was soaked with sterile saline. A portion where imitation vomit was spread was scrubbed with the cotton swab to collect microbes remaining on the floor. After suspending in saline, the solution was spread on a petri dish and cultured. The number of each of the microbes was measured. (5) Test operations 3 and 4 were repeated a total of 7 times (repeated until the imitation vomit could be removed completely).

[2] = system: Microbes of the genus Salmonella: Salmonella Enteritidis IF03313; assay: as above; format: cell-based; conditions: 1000 ppm available chlorine
From the text: as §1, §2

[3] = system: Bacillus cereus NBRC15305; assay: Sterilizing effect on floor surface after wiping off imitation vomit, carpet; format: cell-based
From the text: as §1, §2

[4] = system: E. coli: Escherichia coli IF03927; assay: as above; format: cell-based; conditions: 1000 ppm available chlorine
From the text: as §1, §2

[5] = system: Enterohemorrhagic Escherichia coli O111; assay: as above; format: cell-based
From the text: as §1, §2

[6] = system: Enterohemorrhagic Escherichia coli O157; assay: as above; format: cell-based; conditions: 1000 ppm available chlorine
From the text: as §1, §2

[7] = system: Enterohemorrhagic Escherichia coli O26; assay: as above; format: cell-based; conditions: 1000 ppm available chlorine
From the text: as §1, §2

[8] = system: Staphylococcus aureus IF0 12732; assay: as above; format: cell-based; conditions: 1000 ppm available chlorine
From the text: as §1, §2

[9] = Deodorizing effect (chemical deodorization, gas detector tube); conditions: 400 ppm, spray 20 cc
From the text: In order to evaluate tests on deodorizing effects, the present Example examined deodorizing effects by using standards regarding air freshening and deodorization ([II]-2 Method of Testing Deodorizing Efficacy (Chemical Deodorization)) set forth by the Air Fresheners and Deodorizers Conference (http://www.houkou.gr.jp/) as the efficacy testing method, which is adopted by Japan Food Research Laboratories.
Ammonium odor: Ammonium Standard Solution II (Wako Pure Chemical Industries, for testing malodorous substances) Amine odor: methyl mercaptan standard solution (Wako Pure Chemical Industries, for testing malodorous substances) Sulfur odor: hydrogen sulfide (self-made, used hydrogen sulfide that was generated by adding sulfuric acid to zinc sulfide)
Gas detector tube made by GASTEC Corporation Ammonium odor: Detector tube ammonium 3 L made by GASTEC Corporation Amino odor: Detector tube methyl mercaptan 71 made by GASTEC Corporation Sulfur odor: Detector tube hydrogen sulfide 4 LL made by GASTEC Corporation
Tests were conducted in compliance with ([II]-2 Method of Testing Deodorizing Efficacy (Chemical Deodorization)) set forth by the Air Fresheners and Deodorizers Conference.
The tests were carried out by static culture method, using a commercially-available airbag with a spigot having a volume of about 10 L as test containers. The volume of airbags was appropriately changed in accordance with the size of the product.
The bags were filled with odorless air. Malodor concentrations were measured over time at room temperature (about 20° C.). (3 points or higher, detection tube method (FIG. 16), measured by an instrument analysis method or olfactory measurement method. When decrease in the blank was observed, the decrease was suitably corrected. When measuring by olfactory measuring method, the airbag spigot was opened for direct sniffing, or gas was transferred to an odor bag while wearing a mask to perform olfactory measurement in an autonomic respiration form. Measured air was not returned to the source).
Next, for amine odor (methyl mercaptan), the residual concentrations were detected and recorded for control (no specimen), 20 ml (cc) of distilled water, sodium hypochlorite (expressed as Na hypochlorite, 400 ppm), and chlorous acid aqueous solution (expressed as CAAS, 400 ppm) prior to spraying and 0 hour, 3 hours, 6 hours, 9 hours, and 24 hours after spraying. The experiment was conducted twice.

[10] = stored at 25° C. Day 0, 1000 ppm available chlorine
[11] = stored at 25° C. Day 7, Sodium Hypochlorite, 0 ppm
[12] = stored at 25° C. Day 0, 1000 ppm
[13] = first experiment (Table 55), 0 h after spraying
[14] = first experiment (Table 55), 3 h after spraying
[15] = first experiment (Table 55), 6 h after spraying
[16] = first experiment (Table 55), 9 h after spraying
[17] = first experiment (Table 55), 24 h after spraying
[18] = first experiment (Table 55), before spraying
[19] = second experiment (Table 56), 0 h after spraying
[20] = second experiment (Table 56), 3 h after spraying
[21] = second experiment (Table 56), 6 h after spraying
[22] = second experiment (Table 56), 9 h after spraying
[23] = second experiment (Table 56), 24 h after spraying
[24] = second experiment (Table 56), before spraying

OCl [Sodium Hypochlorite, sodium hypochlorite]
microbes remaining, wiped 1 Time ([1]; stored at 25° C. Day 0): <10
microbes remaining, wiped 2 Times ([1]; stored at 25° C. Day 0): <10
microbes remaining, wiped 3 Times ([1]; stored at 25° C. Day 0): <10
microbes remaining, wiped 1 Time ([1]; stored at 25° C. Day 7): <10
microbes remaining, wiped 2 Times ([1]; stored at 25° C. Day 7): <10
microbes remaining, wiped 3 Times ([1]; stored at 25° C. Day 7): <10
microbes remaining, wiped 1 Time ([2]; stored at 25° C. Day 0): <10
microbes remaining, wiped 2 Times ([2]; stored at 25° C. Day 0): <10
microbes remaining, wiped 3 Times ([2]; stored at 25° C. Day 0): <10
microbes remaining, wiped 1 Time ([2]; stored at 25° C. Day 7): 1.5 × 10^3
microbes remaining, wiped 2 Times ([2]; stored at 25° C. Day 7): 7.7 × 10^2
microbes remaining, wiped 3 Times ([2]; stored at 25° C. Day 7): 1.8 × 10^2
Number of Times Wiped 1 Time (remaining microbes) [3, 10]: <10
Number of Times Wiped 2 Times (remaining microbes) [3, 10]: <10
Number of Times Wiped 3 Times (remaining microbes) [3, 10]: <10
Number of Times Wiped 1 Time (remaining microbes) [3, 11]: 6.7 × 10^3
Number of Times Wiped 2 Times (remaining microbes) [3, 11]: 5.2 × 10^3
Number of Times Wiped 3 Times (remaining microbes) [3, 11]: 4.9 × 10^3
Number of Times Wiped 7 Times (remaining microbes) [3, 11]: 2.0 × 10^3
Number of Times Wiped 1 Time (remaining microbes) ([4]; stored at 25° C. Day 0): <10
Number of Times Wiped 2 Times (remaining microbes) ([4]; stored at 25° C. Day 0): <10
Number of Times Wiped 3 Times (remaining microbes) ([4]; stored at 25° C. Day 0): <10
Number of Times Wiped 1 Time (remaining microbes) ([4]; stored at 25° C. Day 7): <10
Number of Times Wiped 2 Times (remaining microbes) ([4]; stored at 25° C. Day 7): <10
Number of Times Wiped 3 Times (remaining microbes) ([4]; stored at 25° C. Day 7): <10
Number of Times Wiped 1 Time (remaining microbes) [5, 12]: <10
Number of Times Wiped 2 Times (remaining microbes) [5, 12]: <10
Number of Times Wiped 3 Times (remaining microbes) [5, 12]: <10
Number of Times Wiped 1 Time (remaining microbes) [5, 11]: 2.3 × 10^3
Number of Times Wiped 2 Times (remaining microbes) [5, 11]: 1.9 × 10^3
Number of Times Wiped 3 Times (remaining microbes) [5, 11]: 1.1 × 10^3
Number of Times Wiped 1 Time (remaining microbes) ([6]; stored at 25° C. Day 0): <10
Number of Times Wiped 2 Times (remaining microbes) ([6]; stored at 25° C. Day 0): <10
Number of Times Wiped 3 Times (remaining microbes) ([6]; stored at 25° C. Day 0): <10
Number of Times Wiped 1 Time (remaining microbes) ([6]; stored at 25° C. Day 7): <10
Number of Times Wiped 2 Times (remaining microbes) ([6]; stored at 25° C. Day 7): <10
Number of Times Wiped 3 Times (remaining microbes) ([6]; stored at 25° C. Day 7): <10
Microbes remaining on floor surface, wiped 1 Time ([7]; Day 0 at 25° C.): <10
Microbes remaining on floor surface, wiped 2 Times ([7]; Day 0 at 25° C.): <10
Microbes remaining on floor surface, wiped 3 Times ([7]; Day 0 at 25° C.): <10
Microbes remaining on floor surface, wiped 1 Time ([7]; Day 7 at 25° C.): 8.8 × 10^3
Microbes remaining on floor surface, wiped 2 Times ([7]; Day 7 at 25° C.): 4.9 × 10^3
Microbes remaining on floor surface, wiped 3 Times ([7]; Day 7 at 25° C.): 3.0 × 10^3
Number of Times Wiped 1 Time (remaining microbes) ([8]; stored at 25° C. Day 0): <10
Number of Times Wiped 2 Times (remaining microbes) ([8]; stored at 25° C. Day 0): <10
Number of Times Wiped 3 Times (remaining microbes) ([8]; stored at 25° C. Day 0): <10
Number of Times Wiped 1 Time (remaining microbes) ([8]; stored at 25° C. Day 7): <10
Number of Times Wiped 2 Times (remaining microbes) ([8]; stored at 25° C. Day 7): <10
Number of Times Wiped 3 Times (remaining microbes) ([8]; stored at 25° C. Day 7): <10
residual concentration of methyl mercaptan, after correction (Control = 100) [9, 13]: 22
residual concentration of methyl mercaptan, before correction [9, 13]: 20 ppm
residual concentration of methyl mercaptan, after correction (Control = 100) [9, 14]: 0
residual concentration of methyl mercaptan, before correction [9, 14]: 0 ppm
residual concentration of methyl mercaptan, after correction (Control = 100) [9, 15]: 0
residual concentration of methyl mercaptan, before correction [9, 15]: 0 ppm
residual concentration of methyl mercaptan, after correction (Control = 100) [9, 16]: 14
residual concentration of methyl mercaptan, before correction [9, 16]: 5 ppm
residual concentration of methyl mercaptan, after correction (Control = 100) [9, 17]: 25
residual concentration of methyl mercaptan, before correction [9, 17]: 6 ppm
residual concentration of methyl mercaptan, after correction (Control = 100) [9, 18]: 100
residual concentration of methyl mercaptan, before correction [9, 18]: 90 ppm
residual concentration of methyl mercaptan, after correction (Control = 100) [9, 19]: 11
residual concentration of methyl mercaptan, before correction [9, 19]: 8 ppm
residual concentration of methyl mercaptan, after correction (Control = 100) [9, 20]: 11
residual concentration of methyl mercaptan, before correction [9, 20]: 5 ppm
residual concentration of methyl mercaptan, after correction (Control = 100) [9, 21]: 12
residual concentration of methyl mercaptan, before correction [9, 21]: 5 ppm
residual concentration of methyl mercaptan, after correction (Control = 100) [9, 22]: 24
residual concentration of methyl mercaptan, before correction [9, 22]: 7 ppm
residual concentration of methyl mercaptan, after correction (Control = 100) [9, 23]: 35
residual concentration of methyl mercaptan, before correction [9, 23]: 5 ppm
residual concentration of methyl mercaptan, after correction (Control = 100) [9, 24]: 100
residual concentration of methyl mercaptan, before correction [9, 24]: 70 ppm
